Source: patent US11787785B2 (NOVARTIS AG, priority 2021, dated 2023)
Where two headings read alike, the source gives them in different places.

Experiments:
[1] = test system: Fetal Hemoglobin (HbF); experiment: Small molecule HbF induction assay (mPB CD34+ cells erythroid differentiated, flow cytometry); type: cell-based; details: Homo sapiens, 168 h; for Emax: 7 days with compound, baseline DMSO approximately 30-40%, read-out: HbF Amax (highest percentage of cells staining positive for HbF in the fitted dose-response curve); for EC50: erythroid differentiated in presence of compound for 7 days, flow cytometry
Method: Cryopreserved primary human CD34^+ hematopoietic stem and progenitor cells were obtained from AllCells, LLC. The CD34^+ cells were isolated from the peripheral blood of healthy donors after mobilization by administration of granulocyte colony-stimulating factor. Cells were differentiated ex vivo toward the erythroid lineage using a 2-phase culture method. In the first phase, cells were cultured in StemSpan™ Serum-Free Expansion Media (SFEM) ([…] Technologies Inc.) supplemented with rhSCF (50 ng/mL, Peprotech®, Inc.), rhIL-6 (50 ng/mL, Peprotech®, Inc.), rhIL-3 (50 ng/mL, Peprotech®, Inc.), and rhFlt3L (50 ng/mL, Peprotech®, Inc.), and 1× antibiotic-antimycotic (Life Technologies, Thermo Fisher Scientific) for 6 days at 37° C. with 5% CO2. During the second phase, cells were cultured in erythroid differentiation media at 5,000 cells/mL in the presence of compound for 7 days at 37° C. with 5% CO2. Erythroid Differentiation Media is comprised of IMDM (Life Technologies) supplemented with insulin (10 μg/mL, Sigma Aldrich), heparin (2 U/mL Sigma Aldrich), holo-transferrin (330 μg/mL, Sigma Aldrich), human serum AB (5%, Sigma Aldrich), hydrocortisone (1 μM, […] Technologies), rhSCF (100 ng/mL, Peprotech®, Inc.), rhIL-3 (5 ng/mL, Peprotech®, Inc.), rhEPO (3 U/mL, Peprotech®, Inc.), and 1× antibiotic-antimycotic. All compounds were dissolved and diluted into dimethylsulfoxide (DMSO) and were added to culture media for a final concentration of 0.3% DMSO for testing in a 7-point, 1:3 dilution series starting at 30 uM.
Staining and Flow Cytometry
For viability analysis, samples were washed and resuspended in phosphate-buffered saline (PBS) and stained with LIVE/DEAD™ Fixable Violet Dead Cell Stain Kit (Life Technologies, L34963) for 20 minutes. Cells were then washed again with PBS and resuspended in PBS supplemented with 2% fetal bovine serum (FBS), and 2 mM EDTA to prepare for cell surface marker analysis. Cells were labeled with allophycocyanin-conjugated CD235a (1:100, BD Biosciences, 551336) and Brilliant Violet-conjugated CD71 (1:100, BD Biosciences, 563767) antibodies for 20 minutes. For analysis of cytoplasmic Fetal Hemoglobin (HbF), cells were fixed and permeabilized using the Fixation (BioLegend®, 420801) and Permeabilization Wash (BioLegend®, 421002) Buffers according to the manufacturer's protocol. During the permeabilization step, cells were stained with phycoerythrin-conjugated or FITC-conjugated HbF-specific antibody (1:10-1:25, Invitrogen™, MHFH04-4) for 30 minutes. Stained cells were washed with phosphate-buffered saline before analysis on the FACSCanto™ II flow cytometer or LSRFortessa™ (BD Biosciences). Data analysis was performed with FIowJo™ Software (BD Biosciences).
HbF Induction Activity of Compounds (Table 2)
mPB CD34+ cells were expanded for 6 days, then erythroid differentiated in the presence of compound for 7 days. Cells were fixed, stained and analyzed by flow cytometry. […] HbF Amax=the highest percentage of cells staining positive for HbF (% HbF+ cells) in the fitted dose-response curve. The baseline % HbF+ cells for DMSO-treated cells is approximately 30-40%.

[2] = target: T1, WIZ protein (HiBit-WIZ fusion protein) (Homo sapiens, UniProt O95785+Q96SW2); experiment: Quantification of WIZ protein levels in HiBit tag fusion protein assay (WIZ HiBit assay in 293T cells); type: cell-based; design: remaining activity / Dmax: dose or concentration left out as unconfirmed; details: for Dmax at 25 µM / remaining activity at 25 µM / Dmax / remaining activity: HEK-293T; for Dmax at 25 µM: 100 − Amax; for Dmax at 25 µM / remaining activity at 25 µM: 293T cells; for Dmax at 25 µM / Dmax: read-out: % degradation of WIZ (100 − Amax); for remaining activity at 25 µM: DMSO-normalized, curve-fitted percentage of WIZ-HiBit remaining at 25 uM; for remaining activity at 25 µM / remaining activity: read-out: WIZ Amax; for DC50: WIZ HiBit assay in 293T cells, 10-point, 5-fold dose response, highest concentration 25 μM, about 18 hours, read-out: WIZ AC50
T1 construct: expressed in transfected cells
Method in brief: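 Luminescence after LgBit complementation quantified remaining HiBit-WIZ in lysates of single-copy stable 293T lines. Cells dosed ~18 h at 37 °C with 10-point, 5-fold dilutions (highest 25 μM); DMSO set to 100%, fitted curve gave % remaining at 25 μM (Amax).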

[3] = test system: HbF; details: ex vivo, human primary erythroid cells; cited from earlier work
[4] = test system: HbF; details: in vivo; cited from earlier work

T1 sequence (O95785 whole entry, the tested form may be a part): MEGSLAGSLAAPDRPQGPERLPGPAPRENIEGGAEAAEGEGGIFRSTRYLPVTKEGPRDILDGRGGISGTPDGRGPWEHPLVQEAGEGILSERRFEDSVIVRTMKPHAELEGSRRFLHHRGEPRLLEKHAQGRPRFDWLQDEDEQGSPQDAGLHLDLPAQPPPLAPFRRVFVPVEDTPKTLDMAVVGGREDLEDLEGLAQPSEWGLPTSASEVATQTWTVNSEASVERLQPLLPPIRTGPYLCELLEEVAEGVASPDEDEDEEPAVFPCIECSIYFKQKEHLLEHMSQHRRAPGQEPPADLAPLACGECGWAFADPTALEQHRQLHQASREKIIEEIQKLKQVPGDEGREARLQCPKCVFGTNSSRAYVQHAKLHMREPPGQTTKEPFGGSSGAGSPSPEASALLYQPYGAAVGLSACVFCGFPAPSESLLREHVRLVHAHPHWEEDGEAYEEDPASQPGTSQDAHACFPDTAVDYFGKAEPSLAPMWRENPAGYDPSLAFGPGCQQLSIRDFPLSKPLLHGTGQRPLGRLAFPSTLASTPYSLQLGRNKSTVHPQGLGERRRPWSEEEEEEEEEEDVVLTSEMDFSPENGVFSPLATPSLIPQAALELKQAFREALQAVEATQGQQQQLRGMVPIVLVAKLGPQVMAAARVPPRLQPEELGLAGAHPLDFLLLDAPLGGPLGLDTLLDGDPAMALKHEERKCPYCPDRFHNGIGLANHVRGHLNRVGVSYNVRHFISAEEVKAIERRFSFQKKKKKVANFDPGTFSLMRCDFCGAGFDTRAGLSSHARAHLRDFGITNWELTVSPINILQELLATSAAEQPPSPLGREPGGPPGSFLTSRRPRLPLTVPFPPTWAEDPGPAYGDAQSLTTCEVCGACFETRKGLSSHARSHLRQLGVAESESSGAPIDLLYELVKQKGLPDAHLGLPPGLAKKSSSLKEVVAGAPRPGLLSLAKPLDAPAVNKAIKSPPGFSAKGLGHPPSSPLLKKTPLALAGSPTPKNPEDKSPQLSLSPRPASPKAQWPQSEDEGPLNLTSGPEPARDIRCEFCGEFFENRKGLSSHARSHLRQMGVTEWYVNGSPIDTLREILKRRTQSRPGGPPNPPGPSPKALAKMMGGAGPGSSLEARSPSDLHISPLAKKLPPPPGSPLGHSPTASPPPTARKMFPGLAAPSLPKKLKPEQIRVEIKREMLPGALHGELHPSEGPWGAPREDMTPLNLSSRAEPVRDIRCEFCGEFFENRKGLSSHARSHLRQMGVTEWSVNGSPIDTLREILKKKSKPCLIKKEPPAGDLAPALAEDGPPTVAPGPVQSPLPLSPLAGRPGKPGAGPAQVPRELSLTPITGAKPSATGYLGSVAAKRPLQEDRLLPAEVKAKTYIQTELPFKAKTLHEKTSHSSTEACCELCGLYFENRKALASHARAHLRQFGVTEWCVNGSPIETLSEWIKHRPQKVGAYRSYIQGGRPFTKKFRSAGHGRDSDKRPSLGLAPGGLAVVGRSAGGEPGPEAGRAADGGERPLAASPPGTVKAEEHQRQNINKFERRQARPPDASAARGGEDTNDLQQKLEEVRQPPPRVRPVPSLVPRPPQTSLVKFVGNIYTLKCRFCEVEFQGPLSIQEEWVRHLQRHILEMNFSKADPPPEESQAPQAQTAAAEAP
T1 sequence (Q96SW2 whole entry, the tested form may be a part): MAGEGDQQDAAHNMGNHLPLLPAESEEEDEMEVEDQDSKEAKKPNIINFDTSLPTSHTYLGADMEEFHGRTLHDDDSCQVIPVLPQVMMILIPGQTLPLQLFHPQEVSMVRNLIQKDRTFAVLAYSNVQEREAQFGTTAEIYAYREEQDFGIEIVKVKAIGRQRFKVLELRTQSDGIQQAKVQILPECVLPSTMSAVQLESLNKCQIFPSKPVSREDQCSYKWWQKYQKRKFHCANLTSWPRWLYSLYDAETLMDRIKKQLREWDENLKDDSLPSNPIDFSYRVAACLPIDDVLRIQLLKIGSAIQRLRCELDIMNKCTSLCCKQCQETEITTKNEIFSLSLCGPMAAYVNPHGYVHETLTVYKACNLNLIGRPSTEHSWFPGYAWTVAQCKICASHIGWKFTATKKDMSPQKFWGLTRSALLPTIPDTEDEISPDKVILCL
T1 sequence (Q16531 whole entry partner, the tested form may be a part): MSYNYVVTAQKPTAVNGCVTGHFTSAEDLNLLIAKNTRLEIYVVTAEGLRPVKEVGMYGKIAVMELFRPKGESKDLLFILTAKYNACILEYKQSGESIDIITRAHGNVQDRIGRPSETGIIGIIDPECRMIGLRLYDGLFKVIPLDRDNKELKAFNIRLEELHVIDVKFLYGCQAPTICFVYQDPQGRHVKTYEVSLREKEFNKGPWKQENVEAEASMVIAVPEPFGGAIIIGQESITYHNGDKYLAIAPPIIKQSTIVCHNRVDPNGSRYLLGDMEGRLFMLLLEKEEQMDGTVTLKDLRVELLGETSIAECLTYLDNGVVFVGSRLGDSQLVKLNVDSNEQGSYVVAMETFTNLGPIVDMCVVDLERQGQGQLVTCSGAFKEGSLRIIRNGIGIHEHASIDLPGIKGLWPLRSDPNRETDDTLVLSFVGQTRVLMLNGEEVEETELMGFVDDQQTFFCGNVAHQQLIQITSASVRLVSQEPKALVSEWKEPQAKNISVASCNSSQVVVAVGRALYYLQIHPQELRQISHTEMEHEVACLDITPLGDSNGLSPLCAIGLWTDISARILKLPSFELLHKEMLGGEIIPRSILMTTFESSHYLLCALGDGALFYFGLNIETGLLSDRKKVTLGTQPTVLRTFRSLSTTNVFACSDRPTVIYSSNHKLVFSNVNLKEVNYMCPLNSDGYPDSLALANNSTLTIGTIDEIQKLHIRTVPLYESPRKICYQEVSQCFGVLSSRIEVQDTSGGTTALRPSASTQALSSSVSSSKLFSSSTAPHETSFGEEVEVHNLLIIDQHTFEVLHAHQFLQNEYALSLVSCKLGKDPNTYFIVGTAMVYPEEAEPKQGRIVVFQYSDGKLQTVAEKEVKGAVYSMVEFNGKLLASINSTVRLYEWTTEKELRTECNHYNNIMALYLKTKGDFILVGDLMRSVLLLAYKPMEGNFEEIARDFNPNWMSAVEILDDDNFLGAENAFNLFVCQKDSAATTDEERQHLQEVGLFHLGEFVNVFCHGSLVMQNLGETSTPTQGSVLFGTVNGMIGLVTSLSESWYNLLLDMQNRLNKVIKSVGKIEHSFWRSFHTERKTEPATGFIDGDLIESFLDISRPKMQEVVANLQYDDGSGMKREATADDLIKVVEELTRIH

Row | Structure (SMILES) | EC50 [1] [nM] | Dmax at 25 µM [2] [%] | remaining activity at 25 µM [2] [%] | DC50 [2] [nM] | Emax [1] [%] | Dmax [2] [%] | remaining activity [2] [%] | HbF induction [3] | HbF induction [4]
1 | O=C1CCN(c2cnn3ccc(CN4CCN(CC5CCCCC5)CC4)cc23)C(=O)N1 [Example 156, 1-(5-((4-(cyclohexylmethyl)piperazin-1-yl)methyl)pyrazolo[1,5-a]pyridin-3-yl)dihydropyrimidine-2,4(1H,3H)-dione] | 12 | – | – | 23 | 81 | 86 | 14 | – | –
2 | CO[C@H]1CC[C@H](CN2CCN(Cc3ccn4ncc(N5CCC(=O)NC5=O)c4c3)CC2)CC1 [Example 179, 1-(5-((4-(((1r,4r)-4-methoxycyclohexyl)methyl)piperazin-1-yl)methyl)pyrazolo[1,5-a]pyridin-3-yl)dihydropyrimidine-2,4(1H,3H)-dione] | 74 | 82 | 18 | 49 | 79 | – | – | – | –
3 | CO[C@H]1CC[C@H](CN2CCN(Cc3ccn4ncc(N5CCC(=O)NC5=O)c4c3)C[C@@H]2C)CC1 [Example 210, 1-(5-(((S)-4-(((1r,4S)-4-methoxycyclohexyl)methyl)-3-methylpiperazin-1-yl)methyl)pyrazolo[1,5-a]pyridin-3-yl)dihydropyrimidine-2,4(1H,3H)-dione] | 64 | 86 | 14 | 16 | 86 | – | – | – | –
4 | CCS(=O)(=O)N1CC[C@@H](Cc2ccn3ncc(N4CCC(=O)NC4=O)c3c2)C[C@@H]1C [Example 283, 1-(5-(((2S,4R)-1-(ethylsulfonyl)-2-methylpiperidin-4-yl)methyl)pyrazolo[1,5-a]pyridin-3-yl)dihydropyrimidine-2,4(1H,3H)-dione] | 127 | – | – | 29 | 61 | 80 | 19 | – | –
5 | C[C@H]1C[C@H](Cc2ccn3ncc(N4CCC(=O)NC4=O)c3c2)CCN1C(=O)C1CC1 [Example 287, 1-(5-(((2S,4R)-1-(cyclopropanecarbonyl)-2-methylpiperidin-4-yl)methyl)pyrazolo[1,5-a]pyridin-3-yl)dihydropyrimidine-2,4(1H,3H)-dione] | 60 | – | – | 15 | 63 | 81 | 19 | – | –
6 | Nc1cccc2c1CN(C1CCC(=O)NC1=O)C2=O (stereo not drawn) [lenalidomide] | – | – | – | – | – | – | – | induce HbF | induce HbF
7 | Nc1cccc2c1C(=O)N(C1CCC(=O)NC1=O)C2=O (stereo not drawn) [pomalidomide] | – | – | – | – | – | – | – | induce HbF | induce HbF

Now from value to compound, other results behind:

Row | EC50 [1] [nM] | Dmax at 25 µM [2] [%] | remaining activity at 25 µM [2] [%] | DC50 [2] [nM] | Structure (SMILES) | Emax [1] [%] | Dmax [2] [%] | remaining activity [2] [%] | HbF induction [3] | HbF induction [4]
8 | 266 | 82 | 18 | 48 | O=C1CCN(c2cnn3ccc(CC4CCN(Cc5cccnc5)CC4)cc23)C(=O)N1 [Example 17, 1-(5-((1-(pyridin-3-ylmethyl)piperidin-4-yl)methyl)pyrazolo[1,5-a]pyridin-3-yl)dihydropyrimidine-2,4(1H,3H)-dione] | 80 | – | – | – | –
9 | 129 | 82 | 18 | 39 | CC(C)CN1CCC(Cc2ccn3ncc(N4CCC(=O)NC4=O)c3c2)CC1 [Example 109, 1-(5-((1-isobutylpiperidin-4-yl)methyl)pyrazolo[1,5-a]pyridin-3-yl)dihydropyrimidine-2,4(1H,3H)-dione] | 77 | – | – | – | –
10 | 6 | 91 | 9 | 2 | C[C@H]1C[C@H](Cc2ccn3ncc(N4CCC(=O)NC4=O)c3c2)CCN1CC1CCC(F)(F)CC1 [Example 141, 1-(5-(((2S,4R)-1-((4,4-difluorocyclohexyl)methyl)-2-methylpiperidin-4-yl)methyl)pyrazolo[1,5-a]pyridin-3-yl)dihydropyrimidine-2,4(1H,3H)-dione] | 90 | – | – | – | –
11 | 38 | 89 | 11 | 11 | C[C@H]1C[C@H](Cc2ccn3ncc(N4CCC(=O)NC4=O)c3c2)CCN1CC1CCOCC1 [Example 142] | 89 | – | – | – | –
12 | 30 | 84 | 16 | 25 | CC(C)CN1CC[C@@H](Cc2ccn3ncc(N4CCC(=O)NC4=O)c3c2)C[C@@H]1C [Example 145] | 76 | – | – | – | –
13 | 999 | 82 | 18 | 45 | O=C1CCN(c2cnn3ccc(CN4CCN(CC5CCOCC5)CC4)cc23)C(=O)N1 [Example 160] | 84 | – | – | – | –
14 | 45 | 84 | 16 | 25 | CC(C)CN1CCN(Cc2ccn3ncc(N4CCC(=O)NC4=O)c3c2)C[C@@H]1C [Example 203, (S)-1-(5-((4-isobutyl-3-methylpiperazin-1-yl)methyl)pyrazolo[1,5-a]pyridin-3-yl)dihydropyrimidine-2,4(1H,3H)-dione] | 82 | – | – | – | –
15 | 89 | 86 | 14 | 14 | C[C@H]1CN(Cc2ccn3ncc(N4CCC(=O)NC4=O)c3c2)CCN1CC1CCC(F)(F)CC1 [Example 207] | 85 | – | – | – | –
